One block for each molecule: values may come before it.
Columns and labels:
Test in all cases: -log10 GI50 (growth inhibition 50%) (-log10(M)); higher = more potent growth inhibition
MDAMB134VI = test system: MDAMB134VI
Outline: (§1)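 Breast cancer cell lines were exposed to each compound for 72 hours at nine doses in 1:5 serial dilution, in triplicate, with a luminescence read-out against a time-zero plate. A Gompertz curve was fitted to the dose-response data by nonlinear least squares. The value is minus log10 of GI50, the molar concentration giving the set level of growth inhibition. Values equal to the top dose carry a < qualifier.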

HCC1569 = test system: HCC1569
Outline: as §1

MDAMB157 = test system: MDAMB157
Outline: as §1

T47D = test system: T47D
Outline: as §1

SUM159PT = test system: SUM159PT
Outline: as §1

SUM52PE = test system: SUM52PE
Outline: as §1

SUM185PE = test system: SUM185PE
Outline: as §1

ZR75B = test system: ZR75B
Outline: as §1

MCF10F = test system: MCF10F
Outline: as §1

HCC1419 = test system: HCC1419
Outline: as §1

SUM229PE = test system: SUM229PE
Outline: as §1

MCF12A = test system: MCF12A
Outline: as §1

BT549 = test system: BT549
Outline: as §1

BT20 = test system: BT20
Outline: as §1

184B5 = test system: 184B5
Outline: as §1

CAMA1 = test system: CAMA1
Outline: as §1

SUM149PT = test system: SUM149PT
Outline: as §1

MCF7 = test system: MCF7
Outline: as §1

MX1 = test system: MX1
Outline: as §1

UACC812 = test system: UACC812
Outline: as §1

MDAMB175VII = test system: MDAMB175VII
Outline: as §1

MDAMB361 = test system: MDAMB361
Outline: as §1

BT483 = test system: BT483
Outline: as §1

BT474 = test system: BT474
Outline: as §1

184A1 = test system: 184A1
Outline: as §1

LY2 = test system: LY2
Outline: as §1

T47D_KBluc = test system: T47D_KBluc
Outline: as §1

HCC1937 = test system: HCC1937
Outline: as §1

HCC38 = test system: HCC38
Outline: as §1

AU565 = test system: AU565
Outline: as §1

MDAMB415 = test system: MDAMB415
Outline: as §1

HCC2185 = test system: HCC2185
Outline: as §1

HS578T = test system: HS578T
Outline: as §1

HCC1428 = test system: HCC1428
Outline: as §1

600MPE = test system: 600MPE
Outline: as §1

HCC1395 = test system: HCC1395
Outline: as §1

HCC1806 = test system: HCC1806
Outline: as §1

MCF10A = test system: MCF10A
Outline: as §1

HCC3153 = test system: HCC3153
Outline: as §1

HCC1954 = test system: HCC1954
Outline: as §1

MDAMB231 = test system: MDAMB231
Outline: as §1

MDAMB453 = test system: MDAMB453
Outline: as §1

ZR751 = test system: ZR751
Outline: as §1

SUM1315MO2 = test system: SUM1315MO2
Outline: as §1

HCC1143 = test system: HCC1143
Outline: as §1

SUM225CWN = test system: SUM225CWN
Outline: as §1

SKBR3 = test system: SKBR3
Outline: as §1

HCC1187 = test system: HCC1187
Outline: as §1

HCC70 = test system: HCC70
Outline: as §1

-log10 GI50 (MDAMB134VI): < 4
-log10 GI50 (HCC1569): < 4.3
-log10 GI50 (MDAMB157): < 4.3
-log10 GI50 (T47D): < 4.3
-log10 GI50 (HCC1419): < 4
-log10 GI50 (BT549): 4.36
-log10 GI50 (BT20): 4.45
-log10 GI50 (MCF7): < 4.3
-log10 GI50 (MDAMB175VII): 4.85
-log10 GI50 (MDAMB361): 4.3
-log10 GI50 (BT483): 4.52
-log10 GI50 (BT474): 4.58
-log10 GI50 (T47D_KBluc): < 4.3
-log10 GI50 (HCC1937): 4.5
-log10 GI50 (HCC38): 4.29
-log10 GI50 (MDAMB415): 4.6
-log10 GI50 (HCC2185): 5.06
-log10 GI50 (HCC1428): < 4
-log10 GI50 (HCC1395): < 4
-log10 GI50 (HCC1806): < 4.3
-log10 GI50 (HCC3153): 4.1
-log10 GI50 (HCC1954): < 4.3
-log10 GI50 (MDAMB231): < 4.3
-log10 GI50 (MDAMB453): < 4.3
-log10 GI50 (HCC1143): < 4
-log10 GI50 (SKBR3): 4.73
-log10 GI50 (HCC1187): 5.39
Structure (SMILES): COc1cccc(-c2cc(=O)c3ccccc3o2)c1N
-log10 GI50 (SUM159PT): 4.03
-log10 GI50 (SUM52PE): 4.92
-log10 GI50 (SUM185PE): 4.88
-log10 GI50 (ZR75B): 4.59
-log10 GI50 (MCF10F): < 4.3
-log10 GI50 (SUM229PE): < 4.3
-log10 GI50 (MCF12A): < 4.3
-log10 GI50 (184B5): < 4.3
-log10 GI50 (CAMA1): 4.32
-log10 GI50 (SUM149PT): 4.66
-log10 GI50 (MX1): 4.39
-log10 GI50 (UACC812): 4.65
-log10 GI50 (184A1): < 4.3
-log10 GI50 (LY2): < 4.3
-log10 GI50 (AU565): 5.12
-log10 GI50 (HS578T): < 4.3
-log10 GI50 (600MPE): < 4.3
-log10 GI50 (MCF10A): < 4.3
-log10 GI50 (ZR751): < 4.3
-log10 GI50 (SUM1315MO2): < 4.3
-log10 GI50 (SUM225CWN): 4.64
-log10 GI50 (HCC70): < 4.3

-log10 GI50 (MDAMB134VI): 5.22
-log10 GI50 (HCC1569): 5.36
-log10 GI50 (MDAMB157): 5.87
-log10 GI50 (T47D): 5.19
-log10 GI50 (HCC1419): 5.72
-log10 GI50 (BT549): 5.8
-log10 GI50 (BT20): 5.49
-log10 GI50 (MCF7): 5.43
-log10 GI50 (MDAMB175VII): 5.3
-log10 GI50 (MDAMB361): 5.27
-log10 GI50 (BT483): 6.19
-log10 GI50 (BT474): 5.56
-log10 GI50 (T47D_KBluc): 5.38
-log10 GI50 (HCC1937): 6.07
-log10 GI50 (HCC38): 5.64
-log10 GI50 (MDAMB415): 5.59
-log10 GI50 (HCC2185): 5.97
-log10 GI50 (HCC1428): 5.44
-log10 GI50 (HCC1395): 6.15
-log10 GI50 (HCC1806): 5.61
-log10 GI50 (HCC3153): 5.64
-log10 GI50 (HCC1954): 5.22
-log10 GI50 (MDAMB231): 5.14
-log10 GI50 (MDAMB453): 5.26
-log10 GI50 (HCC1143): 5.7
-log10 GI50 (SKBR3): 5.86
-log10 GI50 (HCC1187): 5.73
Structure (SMILES): O=C1C(Cl)=C(NCCN2CCOCC2)C(=O)c2ncccc21
-log10 GI50 (SUM159PT): 5.76
-log10 GI50 (SUM52PE): 5.62
-log10 GI50 (SUM185PE): 6.5
-log10 GI50 (ZR75B): 5.26
-log10 GI50 (MCF10F): 5.6
-log10 GI50 (SUM229PE): 5.26
-log10 GI50 (MCF12A): 5.76
-log10 GI50 (184B5): 5.57
-log10 GI50 (CAMA1): 5.59
-log10 GI50 (SUM149PT): 5.69
-log10 GI50 (MX1): 6.17
-log10 GI50 (UACC812): 5.6
-log10 GI50 (184A1): 5.82
-log10 GI50 (LY2): 6.27
-log10 GI50 (AU565): 5.81
-log10 GI50 (HS578T): 5.7
-log10 GI50 (600MPE): 5.34
-log10 GI50 (MCF10A): 5.65
-log10 GI50 (ZR751): 5.76
-log10 GI50 (SUM1315MO2): 5.96
-log10 GI50 (SUM225CWN): 5.64
-log10 GI50 (HCC70): 5.52

-log10 GI50 (MDAMB134VI): 4.48
-log10 GI50 (HCC1569): 4.54
-log10 GI50 (MDAMB157): < 4.48
-log10 GI50 (T47D): 5.25
-log10 GI50 (HCC1419): 4.69
-log10 GI50 (BT549): < 4.48
-log10 GI50 (BT20): 4.93
-log10 GI50 (MCF7): 4.8
-log10 GI50 (MDAMB175VII): 5.29
-log10 GI50 (MDAMB361): 4.78
-log10 GI50 (BT483): 4.77
-log10 GI50 (BT474): 5.41
-log10 GI50 (T47D_KBluc): < 4.48
-log10 GI50 (HCC1937): < 4.18
-log10 GI50 (HCC38): < 4.18
-log10 GI50 (MDAMB415): < 4.48
-log10 GI50 (HCC2185): 4.91
-log10 GI50 (HCC1428): 5.34
-log10 GI50 (HCC1395): 4.22
-log10 GI50 (HCC1806): 5.25
-log10 GI50 (HCC3153): < 4.18
-log10 GI50 (HCC1954): 5.46
-log10 GI50 (MDAMB231): < 4.48
-log10 GI50 (MDAMB453): 4.69
-log10 GI50 (HCC1143): < 4.18
-log10 GI50 (SKBR3): 4.4
-log10 GI50 (HCC1187): 5.77
Structure (SMILES): O=C1NC(=O)/C(=C/c2ccc(-c3ccc(F)cc3O)o2)S1
-log10 GI50 (SUM159PT): 5.23
-log10 GI50 (SUM52PE): 4.69
-log10 GI50 (ZR75B): 5.04
-log10 GI50 (MCF10F): < 4.48
-log10 GI50 (SUM229PE): < 4.18
-log10 GI50 (MCF12A): 4.68
-log10 GI50 (184B5): 4.65
-log10 GI50 (CAMA1): < 4.18
-log10 GI50 (SUM149PT): 5
-log10 GI50 (MX1): 4.66
-log10 GI50 (UACC812): 4.88
-log10 GI50 (184A1): 5.43
-log10 GI50 (LY2): 4.51
-log10 GI50 (AU565): 4.88
-log10 GI50 (HS578T): 5.06
-log10 GI50 (600MPE): 5.19
-log10 GI50 (MCF10A): < 4.18
-log10 GI50 (ZR751): 5.2
-log10 GI50 (SUM1315MO2): 4.92
-log10 GI50 (SUM225CWN): 5.47
-log10 GI50 (HCC70): 4.67

Reference: the supplement of paper PMC3937590
